Values joined by “and” are separate entries in the source; they are usually repeats but may differ in a detail not shown here. Equal entries are not always repeated. Where two headings read alike, the source gives them in different places.
Tests used:
[1] = test system: Dirofilaria immitis microfilariae; test: Dirofilaria immitis microfilariae immobility assay (DiroImager, 72 h); conditions: Dirofilaria immitis microfilariae
Outline: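 Motility read after 72 h drug exposure with an image-based high-throughput plate imager, 1% DMSO medium serving as negative control. Missouri-isolate microfilariae, roughly 250 per well, freshly purified and cultured in supplemented RPMI 1640.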

Pristionchus pacificus = Pristionchus pacificus motor disruption dose-response on solid media, 1 h; conditions: for EC50: Pristionchus pacificus, 1 h, read-out: P. pacificus motor disruption EC50; for mean % any phene: any phenotype (coiled, jerky-Unc or paralyzed) at one hour, mean of three biological replicates; for rep 1 atypical locomotion / rep 1 coiled / rep 1 no phene / rep 1 paralyzed / rep 2 atypical locomotion / rep 2 coiled / rep 2 no phene / rep 2 paralyzed / rep 3 atypical locomotion / rep 3 coiled / rep 3 no phene / rep 3 paralyzed: count of 20 animals per trial, one hour
rat VAChT = target: T1, rat VAChT (Rattus norvegicus, UniProt Q62666); test: [3H]Vesamicol competitive radioligand binding, PC12 cells expressing ratVAChT
T1 construct: expressed in transfected cells; host or cells: rat PC12 (PC12 A123.7) cells, stably transfected; shared by Dr. Ali Roghani (Texas Tech University)
T1 sequence (Q62666 1-530): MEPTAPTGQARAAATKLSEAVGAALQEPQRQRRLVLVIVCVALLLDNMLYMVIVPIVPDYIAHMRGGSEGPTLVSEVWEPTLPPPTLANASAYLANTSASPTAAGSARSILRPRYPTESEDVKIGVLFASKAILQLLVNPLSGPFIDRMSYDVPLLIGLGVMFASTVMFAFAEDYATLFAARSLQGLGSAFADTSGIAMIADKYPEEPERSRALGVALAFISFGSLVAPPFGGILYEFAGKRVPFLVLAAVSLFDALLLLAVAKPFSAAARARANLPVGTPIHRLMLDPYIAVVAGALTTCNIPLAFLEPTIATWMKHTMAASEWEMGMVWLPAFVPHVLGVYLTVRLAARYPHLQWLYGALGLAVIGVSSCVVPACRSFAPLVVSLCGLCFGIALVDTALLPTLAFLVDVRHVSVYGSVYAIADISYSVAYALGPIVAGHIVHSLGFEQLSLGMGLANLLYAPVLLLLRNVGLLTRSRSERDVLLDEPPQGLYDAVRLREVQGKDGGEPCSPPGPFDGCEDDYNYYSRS

C. elegans = C. elegans motor phenotype scoring on solid media (Punc/jerky-unc, coiled, paralyzed), wild-type young adults; assay type: in vivo, Caenorhabditis elegans; conditions: for atypical locomotion (number of animals) / coiled (number of animals) / no phene (number of animals) / paralyzed (number of animals) / any phene: mean % fraction of young adults exhibiting any phenotype (coiled, jerky-Unc or paralyzed): one hour; for atypical locomotion (number of animals) / coiled (number of animals) / no phene (number of animals) / paralyzed (number of animals): young adults, 20 animals per trial, single technical replicate; for any phene: mean % fraction of young adults exhibiting any phenotype (coiled, jerky-Unc or paralyzed): mean of three biological replicates; for EC50: Caenorhabditis elegans, any motor phenotype after 1 h on solid media, ± 95% CI, read-out: C. elegans - motor disruption EC50
[2] = test system: Dirofilaria immitis L3/L4; test: Dirofilaria immitis L3/L4 motility assay (DiroImager, 72 h); conditions: Dirofilaria immitis L4
Haemonchus contortus = Haemonchus contortus L3 Migration Trap Assay (motility, 24 h exposure); conditions: hc weybridge, motilityTrap24hNoWash, 24 h, single wells
[3] = [3H]Vesamicol binding, PC12, experiment 1, read-out: expt 1 Ki (M) vs. rat VAChT (PC12)
[4] = [3H]Vesamicol binding, PC12, experiment 2, read-out: expt 2 Ki (M) vs. rat VAChT (PC12)
[5] = [3H]Vesamicol binding, rat VAChT (PC12), mean of 2-3 experiments, read-out: mean Ki
[6] = [3H]Vesamicol displacement, mean, read-out: ratVAChT Ki

c1ccc(N2CCN(CC3CCCC3)CC2)cc1 [Nemacol-62]
% effect (motility), DIROIM MF ([1]; 0.016 µM): 0% | % effect (motility), DIROIM MF ([1]; 0.08 µM): 0% | % effect (motility), DIROIM MF ([1]; 0.4 µM): 0% | % effect (motility), DIROIM MF ([1]; 2 µM): 0% | % effect (motility), DIROIM MF ([1]; 10 µM): 0% | EC50 (Pristionchus pacificus): 35.2 ± 7.5 µM | mean % any phene (Pristionchus pacificus; conc 3.75): 0% | rep 1 atypical locomotion (Pristionchus pacificus; conc 3.75): 0 | rep 1 coiled (Pristionchus pacificus; conc 3.75): 0 | rep 1 no phene (Pristionchus pacificus; conc 3.75): 20 | rep 1 paralyzed (Pristionchus pacificus; conc 3.75): 0 | rep 2 atypical locomotion (Pristionchus pacificus; conc 3.75): 0 | rep 2 coiled (Pristionchus pacificus; conc 3.75): 0 | rep 2 no phene (Pristionchus pacificus; conc 3.75): 20 | rep 2 paralyzed (Pristionchus pacificus; conc 3.75): 0 | rep 3 atypical locomotion (Pristionchus pacificus; conc 3.75): 0 | rep 3 coiled (Pristionchus pacificus; conc 3.75): 0 | rep 3 no phene (Pristionchus pacificus; conc 3.75): 20 | rep 3 paralyzed (Pristionchus pacificus; conc 3.75): 0 | mean % any phene (Pristionchus pacificus; conc 15): 3.333% | rep 1 coiled (Pristionchus pacificus; conc 15): 0 | rep 1 no phene (Pristionchus pacificus; conc 15): 20 and 19 | rep 1 paralyzed (Pristionchus pacificus; conc 15): 0 | rep 2 atypical locomotion (Pristionchus pacificus; conc 15): 2 and 1 | rep 2 coiled (Pristionchus pacificus; conc 15): 0 | rep 2 no phene (Pristionchus pacificus; conc 15): 18 and 19 | rep 2 paralyzed (Pristionchus pacificus; conc 15): 0 | rep 3 atypical locomotion (Pristionchus pacificus; conc 15): 0 | rep 3 coiled (Pristionchus pacificus; conc 15): 0 | rep 3 no phene (Pristionchus pacificus; conc 15): 20 | rep 3 paralyzed (Pristionchus pacificus; conc 15): 0 | mean % any phene (Pristionchus pacificus; conc 60): 89.1667% | rep 1 atypical locomotion (Pristionchus pacificus; conc 60): 5 and 6 | rep 1 paralyzed (Pristionchus pacificus; conc 60): 11 and 9 | rep 2 atypical locomotion (Pristionchus pacificus; conc 60): 14 and 15 | rep 2 coiled (Pristionchus pacificus; conc 60): 2 and 3 | rep 2 no phene (Pristionchus pacificus; conc 60): 0 | rep 2 paralyzed (Pristionchus pacificus; conc 60): 4 and 2 | rep 3 atypical locomotion (Pristionchus pacificus; conc 60): 15 and 13 | rep 3 no phene (Pristionchus pacificus; conc 60): 5 and 3 | Ki (rat VAChT; [3]): 2.34e-06 M | Ki (rat VAChT; [4]): 3.34e-06 M | Ki (rat VAChT; [5]): 2.84e-06 M | Ki (rat VAChT; [6]): 2.84e-06 M | atypical locomotion (number of animals) (C. elegans; 3.75uM): 0 and 2 | coiled (number of animals) (C. elegans; 3.75uM): 0 and 1 | no phene (number of animals) (C. elegans; 3.75uM): 20 and 17 and 18 | paralyzed (number of animals) (C. elegans; 3.75uM): 0 | any phene: mean % fraction of young adults exhibiting any phenotype (coiled, jerky-Unc or paralyzed) (C. elegans; 3.75uM): 4.167% | atypical locomotion (number of animals) (C. elegans; 15uM): 13 and 10 and 6 and 17 | coiled (number of animals) (C. elegans; 15uM): 0 and 1 and 4 and 3 | no phene (number of animals) (C. elegans; 15uM): 5 and 8 and 13 and 10 and 0 | paralyzed (number of animals) (C. elegans; 15uM): 2 and 0 and 4 | atypical locomotion (number of animals) (C. elegans; 60uM): 0 and 4 and 2 and 1 | coiled (number of animals) (C. elegans; 60uM): 12 and 8 and 15 and 17 and 7 and 5 | no phene (number of animals) (C. elegans; 60uM): 0 | paralyzed (number of animals) (C. elegans; 60uM): 8 and 3 and 2 and 9 and 14 | EC50 (C. elegans): 11.2 ± 4.4 µM | % effect (motility), DIROIM L4 ([2]; 10 µM): 5% | % effect (motility), DIROIM L4 ([2]; 50 µM): 11%

FC(F)(F)c1cccc(N2CCN(CC3CCCC3)CC2)c1 [Nemacol-63]
% effect (motility), DIROIM MF ([1]; 0.016 µM): 0% | % effect (motility), DIROIM MF ([1]; 0.08 µM): 0% | % effect (motility), DIROIM MF ([1]; 0.4 µM): 0% | % effect (motility), DIROIM MF ([1]; 2 µM): 0% | % effect (motility), DIROIM MF ([1]; 10 µM): 0% | EC50 (Pristionchus pacificus): > 60 µM | mean % any phene (Pristionchus pacificus; conc 3.75): 0.8333% | rep 1 atypical locomotion (Pristionchus pacificus; conc 3.75): 0 | rep 1 coiled (Pristionchus pacificus; conc 3.75): 0 | rep 1 no phene (Pristionchus pacificus; conc 3.75): 20 | rep 1 paralyzed (Pristionchus pacificus; conc 3.75): 0 | rep 2 atypical locomotion (Pristionchus pacificus; conc 3.75): 1 | rep 2 coiled (Pristionchus pacificus; conc 3.75): 0 | rep 2 no phene (Pristionchus pacificus; conc 3.75): 19 | rep 2 paralyzed (Pristionchus pacificus; conc 3.75): 0 | rep 3 atypical locomotion (Pristionchus pacificus; conc 3.75): 0 | rep 3 coiled (Pristionchus pacificus; conc 3.75): 0 | rep 3 no phene (Pristionchus pacificus; conc 3.75): 20 | rep 3 paralyzed (Pristionchus pacificus; conc 3.75): 0 | mean % any phene (Pristionchus pacificus; conc 15): 1.667% | rep 1 atypical locomotion (Pristionchus pacificus; conc 15): 0 | rep 1 coiled (Pristionchus pacificus; conc 15): 0 | rep 1 no phene (Pristionchus pacificus; conc 15): 20 | rep 1 paralyzed (Pristionchus pacificus; conc 15): 0 | rep 2 atypical locomotion (Pristionchus pacificus; conc 15): 0 | rep 2 coiled (Pristionchus pacificus; conc 15): 0 | rep 2 no phene (Pristionchus pacificus; conc 15): 19 and 20 | rep 3 atypical locomotion (Pristionchus pacificus; conc 15): 0 | rep 3 coiled (Pristionchus pacificus; conc 15): 0 | rep 3 no phene (Pristionchus pacificus; conc 15): 20 and 19 | mean % any phene (Pristionchus pacificus; conc 60): 10.8333% | rep 1 atypical locomotion (Pristionchus pacificus; conc 60): 4 and 3 | rep 1 no phene (Pristionchus pacificus; conc 60): 16 | rep 1 paralyzed (Pristionchus pacificus; conc 60): 0 | rep 2 atypical locomotion (Pristionchus pacificus; conc 60): 1 and 2 | rep 2 coiled (Pristionchus pacificus; conc 60): 0 | rep 2 no phene (Pristionchus pacificus; conc 60): 18 | rep 3 coiled (Pristionchus pacificus; conc 60): 0 | rep 3 no phene (Pristionchus pacificus; conc 60): 20 and 19 | rep 3 paralyzed (Pristionchus pacificus; conc 60): 0 | activity ratio, mammalian VAChT Ki to C. elegans in vivo EC50 (rat VAChT): 1.10 | Ki (rat VAChT; [3]): 4.89e-06 M | Ki (rat VAChT; [4]): 8.47e-06 M | Ki (rat VAChT; [5]): 6.68e-06 M | Ki (rat VAChT; [6]): 6.68e-06 M | atypical locomotion (number of animals) (C. elegans; 3.75uM): 0 and 4 and 6 and 2 | coiled (number of animals) (C. elegans; 3.75uM): 0 | no phene (number of animals) (C. elegans; 3.75uM): 20 and 16 and 14 and 18 | paralyzed (number of animals) (C. elegans; 3.75uM): 0 | any phene: mean % fraction of young adults exhibiting any phenotype (coiled, jerky-Unc or paralyzed) (C. elegans; 3.75uM): 18.3333% | atypical locomotion (number of animals) (C. elegans; 15uM): 14 and 16 and 18 and 15 and 17 | coiled (number of animals) (C. elegans; 15uM): 3 and 0 and 2 and 1 | no phene (number of animals) (C. elegans; 15uM): 0 and 4 and 3 | paralyzed (number of animals) (C. elegans; 15uM): 3 and 4 and 0 | any phene: mean % fraction of young adults exhibiting any phenotype (coiled, jerky-Unc or paralyzed) (C. elegans; 15uM): 94.1667% | atypical locomotion (number of animals) (C. elegans; 60uM): 8 and 10 and 11 and 9 and 14 and 15 | coiled (number of animals) (C. elegans; 60uM): 1 and 3 and 2 and 4 | no phene (number of animals) (C. elegans; 60uM): 0 and 5 and 1 | paralyzed (number of animals) (C. elegans; 60uM): 11 and 7 and 9 and 0 | any phene: mean % fraction of young adults exhibiting any phenotype (coiled, jerky-Unc or paralyzed) (C. elegans; 60uM): 95% | EC50 (C. elegans): 6.1 ± 2.1 µM | % effect (motility), DIROIM L4 ([2]; 10 µM): 10% | % effect (motility), DIROIM L4 ([2]; 50 µM): 0%

O=[N+]([O-])c1ccc(N2CCN(CC3CCCCC3)CC2)cc1 [Nemacol_1]
efficacy (Haemonchus contortus; dose 0.0195312 µM): 0 | efficacy (Haemonchus contortus; dose 0.078125 µM): 0 | efficacy (Haemonchus contortus; dose 0.3125 µM): 0 | efficacy (Haemonchus contortus; dose 1.25 µM): 0 | efficacy (Haemonchus contortus; dose 5 µM): 0

CC1CCC(N2CCN(c3ccc(F)cc3)CC2)CC1 (centres unmarked) [Nemacol_53]
efficacy (Haemonchus contortus; dose 0.00488281 µM): 0 | efficacy (Haemonchus contortus; dose 0.0195312 µM): 0 | efficacy (Haemonchus contortus; dose 80 µM): 90.3789 and 92.5148 and 88.1185

c1ccc(N2CCN(CC3CCCC3)CC2)cc1 [Nemacol_62]
efficacy (Haemonchus contortus; dose 5 µM): 0 | efficacy (Haemonchus contortus; dose 20 µM): 0 | efficacy (Haemonchus contortus; dose 80 µM): 0
